Measured values taken from ChEMBL document CHEMBL3046014, “Quinolone derivatives as antitubercular drugs” (Med Chem Res, 2013).
Converted amounts (≈) assume the structure as drawn.

Legend:
[1] = tested on: Mycobacterium tuberculosis; experiment: Antitubercular activity against Mycobacterium tuberculosis; assay type: functional, organism-based
[2] = tested on: Mycobacterium tuberculosis; experiment: Antitubercular activity against Mycobacterium tuberculosis CSU93
[3] = Drug uptake in Mus musculus (mouse) serum at 100 mg/kg, po at 0.25 hr; assay type: ADME, organism-based; parameters: dose 100 mg/kg, route oral; details: read-out: Drug uptake
[4] = Oral bioavailability in healthy Homo sapiens (human); assay type: ADME, organism-based; details: in vivo
[5] = Elimination half life in healthy Homo sapiens (human); assay type: ADME, organism-based; details: in vivo, read-out: beta t1/2 (converted)
[6] = tested on: Mycobacterium avium; experiment: Antitubercular activity against Mycobacterium avium by MAC assay; assay type: functional
[7] = species on record: Homo sapiens; experiment: Toxicity in healthy Homo sapiens (human); assay type: organism-based; details: in vivo
[8] = tested on: Mycobacterium tuberculosis; experiment: Antitubercular activity against Mycobacterium tuberculosis H37Rv; assay type: functional

Structure (SMILES) | IC50 [1] [mg/L] | MIC90 [1] [mg/L] | further results
C[C@H]1CN(c2c(F)cc3c(=O)c(C(=O)O)cn(C4CC4)c3c2OC(F)(F)F)CCN1.Cl | 0.25 | – | –
COc1c(N2C[C@@H]3CCCN[C@@H]3C2)c(F)cc2c(=O)c(C(=O)O)cn(C3CC3)c12 [MOXIFLOXACIN] | – | – | MIC [2]: 0.25 mg/L (≈ 0.623 µM); concentration at 0.25 h [3]: 7.8 µg/mL
C[C@H]1COc2c(N3CCN(C)CC3)c(F)cc3c(=O)c(C(=O)O)cn1c23.C[C@H]1COc2c(N3CCN(C)CC3)c(F)cc3c(=O)c(C(=O)O)cn1c23.O [LEVOFLOXACIN] | – | 1 | –
Cc1c(F)c(N2CCNC(C)C2)cc2c1c(=O)c(C(=O)O)cn2C1CC1 (stereo not drawn) [GREPAFLOXACIN] | – | 1 (≈ 2.78 µM) | –
N[C@@H]1CN(c2c(F)cc3c(=O)c(C(=O)O)cn([C@@H]4C[C@@H]4F)c3c2Cl)CC12CC2 [SITAFLOXACIN ANHYDROUS] | – | 0.2 (≈ 0.488 µM) | bioavailability [4]: ≥ 70%; half-life [5]: 4.4 h
OC(c1cc(C(F)(F)F)nc2c(C(F)(F)F)cccc12)C1CCCCN1 (stereo not drawn) [MEFLOQUINE] | – | – | MIC50 [6]: 16 mg/L (≈ 42.3 µM)
C[C@H]1NCc2cc(-c3ccc4c(=O)c(C(=O)O)cn(C5CC5)c4c3OC(F)F)ccc21 [GARENOXACIN] | – | 0.0625 (≈ 0.147 µM) | –
CC1COc2c(N3CCN(C)CC3)c(F)cc3c(=O)c(C(=O)O)cn1c23 (racemic) [OFLOXACIN] | 0.5 (≈ 1.38 µM) | – | –
C[C@@H]1CN(c2c(F)c(N)c3c(=O)c(C(=O)O)cn(C4CC4)c3c2F)C[C@H](C)N1 [SPARFLOXACIN] | 0.25 (≈ 0.637 µM) | – | –
CNC1CCCN(c2c(F)cc3c(=O)c(C(=O)O)cn(C4CC4)c3c2OC)C1 (stereo not drawn) [BALOFLOXACIN] | 0.5 (≈ 1.28 µM) | – | –
CO/N=C1\CN(c2nc3c(cc2F)c(=O)c(C(=O)O)cn3C2CC2)CC1CN (stereo not drawn) [GEMIFLOXACIN] | – | 8 (≈ 20.5 µM) | bioavailability [4]: 70%; MNTD [7]: 800 mg; half-life [5]: 7.4 h
N[C@@H]1[C@H]2CN(c3nc4c(cc3F)c(=O)c(C(=O)O)cn4-c3ccc(F)cc3F)C[C@@H]12 [TROVAFLOXACIN] | – | 1 (≈ 2.4 µM) | –
CCn1cc(C(=O)O)c(=O)c2cc(F)c(N3CCNCC3)cc21 [NORFLOXACIN] | 8 (≈ 25.1 µM) | – | –
OC(C1=CCC=CN1)c1cc(-c2ccc(Cl)cc2)nc2c1ccc1ccccc12 (stereo not drawn) | – | – | MIC50 [6]: 1 mg/L (≈ 2.51 µM)
OC(C1=CCC=CN1)c1cc(C2C3CC4CC(C3)CC2C4)nc2c1ccc1ccccc12 (stereo not drawn) | – | – | MIC50 [6]: 2 mg/L (≈ 4.73 µM)
O=C(O)c1cn(C2CC2)c2cc(N3CCNCC3)c(F)cc2c1=O [CIPROFLOXACIN] | 0.5 (≈ 1.51 µM) | – | –
COc1nc2ccc(Br)cc2cc1[C@@H](c1ccccc1)[C@@](O)(CCN(C)C)c1cccc2ccccc12 [BEDAQUILINE] | – | – | MIC [8]: < 0.5 mg/L
